The source of these data is patent US20040166079A1, “N-Lauroyl amino acid composition for slimming the human body” (priority 2003, published 2004).

This test deals with normal human dermal fibroblasts. The test is described as follows: Measurement in vitro of the production of hyaluronic acid (STAINS ALL, 630 nm). The format is cell-based. The note with it: incubation concentration 10 ng/ml; 5 days. Here is the method:
Glycosaminoglycans (GAGs) are the major proteoglycans of the dermis and play an essential role in maintaining the integrity of the skin. Hyaluronic acid is a major nonsulphated GAG which plays an essential role in the hydration of the skin by its capacity to fix up to 1000 times its weight as water. The effect of the products on the hyaluronic acid level was evaluated by a technique in vitro.
The hyaluronic acid level is measured in cultures of normal human dermal fibroblasts. The cells are incubated for 5 days in the presence of the products solubilized in the incubation medium. At the end of this incubation, the extracellular media in which the hyaluronic acid is secreted are collected. The hyaluronic acid is stained with a specific stain, STAINS ALL ((1-ethyl-2-[3-(1-ethylnaphtho-[1,2-d]thiazolin-2-ylidene)-2-methylpropenyl]naphtho-[1,2-d]thiazolium bromide, SIGMA), which interacts with it to produce a change in the absorption spectrum between 620 and 660 nm; the measurement is made by spectrophotometry. A hyaluronic acid series is prepared in parallel. […]
Evaluation of the effects: After 5 days of incubation in the presence of the products, the incubation media are collected and incubated in the presence of STAINS ALL. […] The quantification is made by spectrophotometry at 630 nm. […] The results are expressed as extracellular hyaluronic acid relative to the control.

In the case of “EGF: reference in the hyaluronic acid production test, 10 ng/ml”, the “Extracellular hyaluronic acid produced (% relative to the control)” value amounted to 133%.
